Results taken from article PMC6364417, “Kinase inhibitor library screening identifies synergistic drug combinations effective in sensitive and resistant melanoma cells” (Journal of Experimental & Clinical Cancer Research : CR, 2019).

Columns and labels:
Experiment in all cases: Kinase inhibitor library screening, PrestoBlue cell viability, 1 or 10 μM, 72 h
[1] = system: IGR37-XP cells (Vemurafenib-resistant); conditions: IGR37 XP, 72 h
[2] = system: 501Mel-GP cells (Dabrafenib-resistant); conditions: 501Mel GP, 72 h
[3] = system: A375-GP cells (Dabrafenib-resistant); conditions: A375 GP, 72 h
[4] = system: IGR37 cells (parental); conditions: IGR37 Parental, 72 h
[5] = system: A375 cells (parental); conditions: A375 Parental, 72 h
[6] = system: A375-XP cells (Vemurafenib-resistant); conditions: A375 XP, 72 h
[7] = system: 501Mel-XP cells (Vemurafenib-resistant); conditions: 501Mel XP, 72 h
[8] = system: 501Mel cells (parental); conditions: 501Mel Parental, 72 h
Procedure, shortened: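 Two concentrations of every kinase inhibitor were tested on each melanoma line and its resistant counterparts, and cell survival was quantified by PrestoBlue against untreated wells.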

[9] = system: IGR37-GP cells (Dabrafenib-resistant); conditions: IGR37 GP, 72 h

COc1cccc2cc(-c3nc([C@H]4CC[C@H](C(=O)O)CC4)n4ncnc(N)c34)[nH]c12 [OSI-027]
Cell viability in kinase inhibitor library screening, IGR37 XP, 1μΜ ([1]; 1μΜ, in %): 72.2
Cell viability in kinase inhibitor library screening, 501Mel GP, 1μΜ ([2]; 1μΜ, in %): 59.2
Cell viability in kinase inhibitor library screening, 501Mel GP, 10μΜ ([2]; 10μΜ, in %): 13.9
Cell viability in kinase inhibitor library screening, A375 GP, 1μΜ ([3]; 1μΜ): 62.5
Cell viability in kinase inhibitor library screening, A375 GP, 10μΜ ([3]; 10μΜ): 21.4
Cell viability in kinase inhibitor library screening, IGR37 Parental, 1μΜ ([4]; 1μΜ, in %): 84.3
Cell viability in kinase inhibitor library screening, IGR37 Parental, 10μΜ ([4]; 10μΜ, in %): 46.6
Cell viability in kinase inhibitor library screening, A375 Parental, 10μΜ ([5]; 10μΜ): 24.3
Cell viability in kinase inhibitor library screening, A375 Parental, 1μΜ ([5]; 1μΜ): 72.3
Cell viability in kinase inhibitor library screening, A375 XP, 1μΜ ([6]; 1μΜ): 55.5
Cell viability in kinase inhibitor library screening, A375 XP, 10μΜ ([6]; 10μΜ): 19.1
Cell viability in kinase inhibitor library screening, 501Mel XP, 1μΜ ([7]; 1μΜ, in %): 55.5
Cell viability in kinase inhibitor library screening, 501Mel XP, 10μΜ ([7]; 10μΜ, in %): 6.8
Cell viability in kinase inhibitor library screening, 501Mel Parental, 1μΜ ([8]; 1μΜ, in %): 74.7
Cell viability in kinase inhibitor library screening, 501Mel Parental, 10μΜ ([8]; 10μΜ, in %): 14.4
Cell viability in kinase inhibitor library screening, IGR37 GP, 10μΜ ([9]; 10μΜ): 40%
Cell viability in kinase inhibitor library screening, IGR37 GP, 1μΜ ([9]; 1μΜ, in %): 81.3

C#Cc1cccc(Nc2ncnc3cc(OCCOC)c(OCCO)cc23)c1 [OSI-420 (Desmethyl Erlotinib)]
cell viability, IGR37 XP, 10μΜ ([1]; 10μΜ): 45.3%
cell viability, IGR37 XP, 1μΜ ([1]; 1μΜ, in %): 83.7
cell viability, 501Mel GP, 1μΜ ([2]; 1μΜ, in %): 106.0
cell viability, 501Mel GP, 10μΜ ([2]; 10μΜ, in %): 79.2
cell viability, A375 GP, 1μΜ ([3]; 1μΜ, in %): 96.7
cell viability, A375 GP, 10μΜ ([3]; 10μΜ, in %): 88.2
cell viability, IGR37 Parental, 1μΜ ([4]; 1μΜ, in %): 108.5
cell viability, IGR37 Parental, 10μΜ ([4]; 10μΜ, in %): 104.1
cell viability, A375 Parental, 10μΜ ([5]; 10μΜ, in %): 54.9
cell viability, A375 XP, 10μΜ ([6]; 10μΜ, in %): 79.2
cell viability, 501Mel XP, 1μΜ ([7]; 1μΜ, in %): 117.2
cell viability, 501Mel XP, 10μΜ ([7]; 10μΜ, in %): 44.4
cell viability, 501Mel Parental, 1μΜ ([8]; 1μΜ, in %): 109.3
cell viability, 501Mel Parental, 10μΜ ([8]; 10μΜ, in %): 100.2
cell viability, IGR37 GP, 10μΜ ([9]; 10μΜ): 81.4%
cell viability, IGR37 GP, 1μΜ ([9]; 1μΜ, in %): 91.6

O=C(Nc1ccc(OC(F)(F)F)cc1)c1sccc1NCc1ccnc2ccccc12 [OSI-930]
cell viability (kinase inhibitor library screening) ([1]; 1μΜ): 100.2%
cell viability (kinase inhibitor library screening) ([1]; 10μΜ): 70.0%
cell viability (kinase inhibitor library screening) ([2]; 1μΜ): 96.5%
cell viability (kinase inhibitor library screening) ([2]; 10μΜ): 73.5%
cell viability (kinase inhibitor library screening) ([3]; 1μΜ): 86.8%
cell viability (kinase inhibitor library screening) ([3]; 10μΜ): 55.3%
cell viability (kinase inhibitor library screening) ([4]; 1μΜ): 96.0%
cell viability (kinase inhibitor library screening) ([4]; 10μΜ): 89.7%
cell viability (kinase inhibitor library screening) ([5]; 10μΜ): 77.6%
cell viability (kinase inhibitor library screening) ([5]; 1μΜ): 97.9%
cell viability (kinase inhibitor library screening) ([6]; 1μΜ): 93.4%
cell viability (kinase inhibitor library screening) ([6]; 10μΜ): 71.6%
cell viability (kinase inhibitor library screening) ([7]; 1μΜ): 92.9%
cell viability (kinase inhibitor library screening) ([7]; 10μΜ): 73.6%
cell viability (kinase inhibitor library screening) ([8]; 1μΜ): 100.2%
cell viability (kinase inhibitor library screening) ([8]; 10μΜ): 85.8%
cell viability (kinase inhibitor library screening) ([9]; 1μΜ): 88.5%
cell viability (kinase inhibitor library screening) ([9]; 10μΜ): 90.3%

NCC(=O)Nc1ccc(-n2nc(C(F)(F)F)cc2-c2ccc3c(ccc4ccccc43)c2)cc1 [OSU-03012]
Cell viability in kinase inhibitor library screening, IGR37 XP, 10μΜ ([1]; 10μΜ): 1.4%
Cell viability in kinase inhibitor library screening, IGR37 XP, 1μΜ ([1]; 1μΜ, in %): 109.9
Cell viability in kinase inhibitor library screening, 501Mel GP, 1μΜ ([2]; 1μΜ, in %): 94.0
Cell viability in kinase inhibitor library screening, 501Mel GP, 10μΜ ([2]; 10μΜ, in %): -0.274
Cell viability in kinase inhibitor library screening, A375 GP, 1μΜ ([3]; 1μΜ): 89.7
Cell viability in kinase inhibitor library screening, A375 GP, 10μΜ ([3]; 10μΜ): 0.547
Cell viability in kinase inhibitor library screening, IGR37 Parental, 10μΜ ([4]; 10μΜ, in %): 0.5
Cell viability in kinase inhibitor library screening, A375 Parental, 10μΜ ([5]; 10μΜ): 0.756
Cell viability in kinase inhibitor library screening, A375 Parental, 1μΜ ([5]; 1μΜ): 91.6
Cell viability in kinase inhibitor library screening, A375 XP, 1μΜ ([6]; 1μΜ): 91.6
Cell viability in kinase inhibitor library screening, A375 XP, 10μΜ ([6]; 10μΜ): 0.7
Cell viability in kinase inhibitor library screening, 501Mel XP, 1μΜ ([7]; 1μΜ, in %): 90.0
Cell viability in kinase inhibitor library screening, 501Mel XP, 10μΜ ([7]; 10μΜ, in %): -0.352
Cell viability in kinase inhibitor library screening, 501Mel Parental, 1μΜ ([8]; 1μΜ, in %): 91.0
Cell viability in kinase inhibitor library screening, 501Mel Parental, 10μΜ ([8]; 10μΜ, in %): 0.3
Cell viability in kinase inhibitor library screening, IGR37 GP, 10μΜ ([9]; 10μΜ): 2.3%
Cell viability in kinase inhibitor library screening, IGR37 GP, 1μΜ ([9]; 1μΜ, in %): 99.0
